Results as given in paper PMC11620503 (Antimicrobial Agents and Chemotherapy, 2024).
In brackets after ≈: the same amount, converted by molar mass. Where two headings read alike, the source gives them in different places.

Columns and labels:
[1] = tested on: E. coli CDC-162 (NDM-7), PBP3 mutations; experiment: MIC, broth microdilution; assay type: cell-based; conditions: Escherichia coli
[2] = tested on: MEM-nonsusceptible Enterobacterales with serine-carbapenemases; experiment: MIC, broth microdilution; assay type: cell-based; conditions: for CLSI MIC interpretation I (intermediate) / CLSI MIC interpretation R (resistant) / CLSI MIC interpretation S (susceptible): CLSI breakpoints, marked c: breakpoints for β-lactam alone
[3] = tested on: E. coli CDC-435 (NDM-1), PBP3 mutations; experiment: MIC, broth microdilution; assay type: cell-based; conditions: Escherichia coli, fixed BLI concentration (μg/mL) in parentheses in label
[4] = tested on: E. coli CDC-150 (NDM-5), PBP3 mutations; experiment: MIC, broth microdilution; assay type: cell-based; conditions: Escherichia coli, fixed BLI concentration (μg/mL) in parentheses in label
[5] = tested on: E. coli CDC-119 (NDM-1), PBP3 mutations; experiment: MIC, broth microdilution; assay type: cell-based; conditions: Escherichia coli
[6] = tested on: E. coli CDC-149 (NDM-7), PBP3 mutations; experiment: MIC, broth microdilution; assay type: cell-based; conditions: Escherichia coli
[7] = tested on: MEM-, imipenem/relebactam-, and ceftolozane/tazobactam-nonsusceptible P. aeruginosa; experiment: MIC, broth microdilution; assay type: cell-based, Pseudomonas aeruginosa; conditions: for CLSI MIC interpretation I (intermediate) / CLSI MIC interpretation R (resistant) / CLSI MIC interpretation S (susceptible): CLSI breakpoints, marked c: breakpoints for β-lactam alone; for MIC Range / MIC50 / MIC90: fixed concentration (μg/mL) in label; for MIC50 / MIC90: Pseudomonas aeruginosa; for MIC50: read-out: MIC50; for MIC90: read-out: MIC90
[8] = tested on: Bacteroides ovatus KUB3009; experiment: MIC, agar dilution, reference strains of anaerobic bacteria; assay type: cell-based
[9] = tested on: Klebsiella aerogenes NCTC 10006 (ATCC 13048); experiment: MIC, reference strains of aerobic bacteria; assay type: cell-based
[10] = tested on: Eggerthella lenta ATCC 43055; experiment: MIC, agar dilution, reference strains of anaerobic bacteria; assay type: cell-based; conditions: ATCC43055
[11] = tested on: Enterobacter cloacae NBRC 13535 (ATCC 13047); experiment: MIC, reference strains of aerobic bacteria; assay type: cell-based
[12] = tested on: Streptococcus pseudoporcinus ATCC BAA-1381; experiment: MIC, reference strains of aerobic bacteria; assay type: cell-based; conditions: ATCCBAA1381
[13] = tested on: 12 Gram-positive strains (including methicillin-sensitive staphylococci and streptococci); experiment: Intrinsic antibacterial activity, MIC; assay type: cell-based; conditions: KSP-1007 alone
IMP-1 = IMP-1 (Serratia marcescens, UniProt P52699); experiment: Ki app determination (Waley's method)
[14] = tested on: Staphylococcus saprophyticus KUB4845; experiment: MIC, reference strains of aerobic bacteria; assay type: cell-based
OXA-48 = OXA-48 (Klebsiella pneumoniae, UniProt Q6XEC0); experiment: Ki app determination (Waley's method)
Parvimonas micra KUB3000 = experiment: MIC, agar dilution, reference strains of anaerobic bacteria; assay type: cell-based
IMP-6 = IMP-6 (Serratia marcescens, UniProt P52699, S214G); experiment: Ki app determination (Waley's method)
NDM-1 = NDM-1 (Klebsiella pneumoniae, UniProt C7C422); experiment: Ki app determination (Waley's method)
[15] = tested on: Fusobacterium nucleatum ATCC 25586; experiment: MIC, agar dilution, reference strains of anaerobic bacteria; assay type: cell-based; conditions: ATCC25586
[16] = tested on: Citrobacter freundii ATCC 8090; experiment: MIC, reference strains of aerobic bacteria; assay type: cell-based; conditions: ATCC8090
[17] = cited from earlier work
[18] = tested on: Staphylococcus lugdunensis KUB4804; experiment: MIC, reference strains of aerobic bacteria; assay type: cell-based
VIM-2 = VIM-2 (Escherichia coli, UniProt Q5U7L7); experiment: Ki app determination (Waley's method)
OXA-24 = OXA-24 (Acinetobacter baumannii, UniProt Q8RLA6); experiment: Ki app determination (Waley's method)
SHV-2 = SHV-2 (Klebsiella pneumoniae, UniProt P0A9Z8); experiment: Ki app determination (Waley's method)
SHV-12 = SHV-12 (Klebsiella pneumoniae, UniProt P0A3M1, L31Q); experiment: Ki app determination (Waley's method)
[19] = tested on: Enterobacter hormaechei ATCC BAA-2082; experiment: MIC, reference strains of aerobic bacteria; assay type: cell-based; conditions: ATCCBAA2082
[20] = tested on: Prevotella intermedia KUB2991; experiment: MIC, agar dilution, reference strains of anaerobic bacteria; assay type: cell-based
[21] = tested on: Acinetobacter baumannii ATCC 19606; experiment: MIC, reference strains of aerobic bacteria; assay type: cell-based; conditions: ATCC19606
[22] = tested on: Micrococcus luteus ATCC 9341; experiment: MIC, reference strains of aerobic bacteria; assay type: cell-based; conditions: ATCC9341
[23] = tested on: Streptococcus pyogenes ATCC 12344; experiment: MIC, reference strains of aerobic bacteria; assay type: cell-based; conditions: ATCC12344
[24] = tested on: Klebsiella pneumoniae ATCC 700603; experiment: MIC, reference strains of aerobic bacteria; assay type: cell-based; conditions: ATCC700603
[25] = tested on: Serratia marcescens NBRC 12648 (ATCC 14756); experiment: MIC, reference strains of aerobic bacteria; assay type: cell-based
[26] = tested on: Klebsiella pneumoniae ATCC BAA-2344 (KPC-2); experiment: MIC, broth microdilution; assay type: cell-based; conditions: K. pneumoniae ATCC BAA-2344, agent alone
[27] = MEM-nonsusceptible Enterobacterales with serine-carbapenemases (58), tigecycline: FDA breakpoints
[28] = MEM-nonsusceptible Enterobacterales with serine-carbapenemases (58), fixed concentration (μg/mL) in label, read-out: MIC50
[29] = MEM-nonsusceptible Enterobacterales with serine-carbapenemases (58), fixed concentration (μg/mL) in label, read-out: MIC90
[30] = Ceftolozane/tazobactam-nonsusceptible Pseudomonas aeruginosa (45)
[31] = Imipenem/relebactam-nonsusceptible Pseudomonas aeruginosa (43)
[32] = MEM-nonsusceptible Pseudomonas aeruginosa (76)
[33] = MEM-nonsusceptible Enterobacterales with serine-carbapenemases (42), CDC AR Bank
[34] = MEM-nonsusceptible Enterobacterales with serine-carbapenemases (42), CDC AR Bank, fixed concentration (μg/mL) in label

Chain of OXA-24 (Q8RLA6 20-275 limits assumed): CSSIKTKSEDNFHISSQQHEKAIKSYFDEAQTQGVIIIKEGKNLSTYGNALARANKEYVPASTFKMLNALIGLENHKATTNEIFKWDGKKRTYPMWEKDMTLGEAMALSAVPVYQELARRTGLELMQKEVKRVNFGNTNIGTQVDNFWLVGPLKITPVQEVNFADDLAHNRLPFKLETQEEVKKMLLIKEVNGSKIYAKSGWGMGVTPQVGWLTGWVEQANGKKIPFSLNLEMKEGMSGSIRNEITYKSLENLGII
Chain of IMP-1 (P52699 19-246, looked up, species assumed): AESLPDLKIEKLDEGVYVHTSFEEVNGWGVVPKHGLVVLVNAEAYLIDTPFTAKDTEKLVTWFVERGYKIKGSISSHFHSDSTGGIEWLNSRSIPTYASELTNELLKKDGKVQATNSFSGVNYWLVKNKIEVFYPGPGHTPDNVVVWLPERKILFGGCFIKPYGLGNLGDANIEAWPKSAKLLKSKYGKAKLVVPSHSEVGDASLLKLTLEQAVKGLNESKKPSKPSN
Chain of SHV-12 (P0A3M1 22-286 L31Q): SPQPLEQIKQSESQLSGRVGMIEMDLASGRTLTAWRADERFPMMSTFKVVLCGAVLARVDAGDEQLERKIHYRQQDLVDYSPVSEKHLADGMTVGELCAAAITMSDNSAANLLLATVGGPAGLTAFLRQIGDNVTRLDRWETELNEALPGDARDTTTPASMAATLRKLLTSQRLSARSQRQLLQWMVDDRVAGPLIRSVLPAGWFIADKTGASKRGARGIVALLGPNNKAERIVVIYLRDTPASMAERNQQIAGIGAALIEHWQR
Chain of OXA-48 (Q6XEC0 23-265, looked up, species assumed): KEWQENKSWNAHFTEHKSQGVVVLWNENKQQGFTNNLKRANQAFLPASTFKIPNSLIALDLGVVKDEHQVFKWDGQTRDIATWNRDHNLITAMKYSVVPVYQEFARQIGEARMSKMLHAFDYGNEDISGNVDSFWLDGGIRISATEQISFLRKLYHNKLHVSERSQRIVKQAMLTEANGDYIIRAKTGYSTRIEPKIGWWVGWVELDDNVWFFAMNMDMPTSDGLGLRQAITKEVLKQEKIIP
Chain of IMP-6 (P52699 19-246 S214G): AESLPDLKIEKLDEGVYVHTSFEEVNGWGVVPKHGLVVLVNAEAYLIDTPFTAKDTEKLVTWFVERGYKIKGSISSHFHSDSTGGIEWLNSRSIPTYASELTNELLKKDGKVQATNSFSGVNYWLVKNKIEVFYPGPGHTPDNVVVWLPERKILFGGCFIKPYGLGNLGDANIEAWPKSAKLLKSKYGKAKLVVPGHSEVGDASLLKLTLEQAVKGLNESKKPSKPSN
Chain of SHV-2 (P0A9Z8 22-286): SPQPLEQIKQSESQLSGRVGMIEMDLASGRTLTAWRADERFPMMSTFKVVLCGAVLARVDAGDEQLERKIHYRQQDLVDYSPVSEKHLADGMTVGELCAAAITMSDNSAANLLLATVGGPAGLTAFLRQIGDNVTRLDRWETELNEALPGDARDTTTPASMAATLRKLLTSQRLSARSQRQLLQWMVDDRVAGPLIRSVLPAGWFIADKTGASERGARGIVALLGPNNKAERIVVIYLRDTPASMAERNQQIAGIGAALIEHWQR
Chain of NDM-1 (C7C422 29-270, looked up, species assumed): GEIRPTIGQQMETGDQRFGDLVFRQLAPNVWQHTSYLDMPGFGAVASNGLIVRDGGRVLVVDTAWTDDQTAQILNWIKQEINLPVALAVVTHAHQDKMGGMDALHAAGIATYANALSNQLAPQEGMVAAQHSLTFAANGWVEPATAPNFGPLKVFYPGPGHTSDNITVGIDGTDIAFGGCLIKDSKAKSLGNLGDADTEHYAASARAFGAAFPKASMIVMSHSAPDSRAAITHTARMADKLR

## CC(C)(O/N=C(\C(=O)N[C@@H]1C(=O)N2C(C(=O)[O-])=C(C[N+]3(CCNC(=O)c4ccc(O)c(O)c4Cl)CCCC3)CS[C@H]12)c1csc(N)n1)C(=O)O [FDC, cefiderocol]
[1]
  MIC: 8 µg/mL (≈ 10.6 µM)
[2]; [27]
  CLSI MIC interpretation I (intermediate): 0%
  CLSI MIC interpretation R (resistant): 0%
  CLSI MIC interpretation S (susceptible): 100%
[2]; MEM-nonsusceptible Enterobacterales with serine-carbapenemases (58), fixed concentration (μg/mL) in label
  MIC Range: ≤0.06 to 4 µg/mL
[2]; [28]
  MIC50: 0.5 µg/mL (≈ 0.665 µM)
[2]; [29]
  MIC90: 2 µg/mL (≈ 2.66 µM)
[3]
  MIC: 4 µg/mL (≈ 5.32 µM)
[4]
  MIC: 4 µg/mL (≈ 5.32 µM)
[5]
  MIC: 0.5 µg/mL (≈ 0.665 µM)
[6]
  MIC: 16 µg/mL (≈ 21.3 µM)
[7]; [30]
  CLSI MIC interpretation I (intermediate): 0%
  CLSI MIC interpretation R (resistant): 0%
  CLSI MIC interpretation S (susceptible): 100%
  MIC Range: 0.25 to 4 µg/mL
  MIC50: 0.5 µg/mL
  MIC90: 2 µg/mL
[7]; [31]
  CLSI MIC interpretation I (intermediate): 0%
  CLSI MIC interpretation R (resistant): 0%
  CLSI MIC interpretation S (susceptible): 100%
  MIC Range: 0.12 to 4 µg/mL
  MIC50: 0.5 µg/mL
  MIC90: 2 µg/mL
[7]; [32]
  CLSI MIC interpretation I (intermediate): 0%
  CLSI MIC interpretation R (resistant): 0%
  CLSI MIC interpretation S (susceptible): 100%
  MIC Range: ≤0.06 to 4 µg/mL
  MIC50: 0.5 µg/mL (≈ 0.665 µM)
  MIC90: 2 µg/mL (≈ 2.66 µM)

## N[C@@H](C(=O)N1CC(Oc2ccc3c(c2C(=O)O)OB(O)CC3)C1)c1c[nH]cn1 [KSP-1007, 7-({1-[(2R)-2-amino-2-(1H-imidazol-4-yl)acetyl]azetidin-3-yl}oxy)-2-hydroxy-3,4-dihydro-2H-1,2-benzoxaborinine-8-carboxylic acid]
[8]
  MIC: 128 µg/mL (≈ 331 µM)
[9]
  MIC: > 128 µg/mL
[10]
  MIC: > 256 µg/mL
[11]
  MIC: > 128 µg/mL
[12]
  MIC: 1 µg/mL (≈ 2.59 µM)
[13]
  MICs, range: 0.25 to 8 µg/mL
IMP-1
  Ki: 512 ± 119 nM
[14]
  MIC: 4 µg/mL (≈ 10.4 µM)
OXA-48
  Ki: 0.861 ± 0.0767 nM
Parvimonas micra KUB3000
  MIC: 64 µg/mL (≈ 166 µM)
IMP-6
  Ki: 19900 nM
NDM-1
  Ki: 126 ± 58.1 nM
[15]
  MIC: 32 µg/mL (≈ 82.9 µM)
[16]
  MIC: 128 µg/mL (≈ 331 µM)
[17]
  human plasma protein binding rate: about 75%
[18]
  MIC: 4 µg/mL (≈ 10.4 µM)
VIM-2
  Ki: 1210 nM
OXA-24
  Ki: 1.09 ± 0.387 nM
SHV-2
  Ki: 361 ± 127 nM
SHV-12
  Ki: 53.5 ± 12.2 nM
[19]
  MIC: > 128 µg/mL
[20]
  MIC: 4 µg/mL (≈ 10.4 µM)
[21]
  MIC: > 128 µg/mL
[22]
  MIC: 128 µg/mL (≈ 331 µM)
[23]
  MIC: 4 µg/mL (≈ 10.4 µM)
[24]
  MIC: > 128 µg/mL
[25]
  MIC: > 128 µg/mL

## C[C@@H](O)[C@H]1C(=O)N2C(C(=O)O)=C(S[C@@H]3CN[C@H](C(=O)N(C)C)C3)[C@H](C)[C@H]12 [MEM, meropenem]
[9]
  MIC: ≤ 0.03 µg/mL
[11]
  MIC: 0.12 µg/mL (≈ 0.313 µM)
[12]
  MIC: ≤ 0.03 µg/mL
[1]
  MIC: 32 µg/mL (≈ 83.4 µM)
[14]
  MIC: 0.12 µg/mL (≈ 0.313 µM)
[2]; [33]
  CLSI MIC interpretation I (intermediate): 16.7%
  CLSI MIC interpretation R (resistant): 83.3%
  CLSI MIC interpretation S (susceptible): 0%
[2]; [34]
  MIC50: 8 µg/mL (≈ 20.9 µM)
  MIC90: 32 µg/mL (≈ 83.4 µM)
[2]; [27]
  CLSI MIC interpretation I (intermediate): 15.5%
  CLSI MIC interpretation R (resistant): 84.5%
  CLSI MIC interpretation S (susceptible): 0%
[2]; [28]
  MIC50: 8 µg/mL (≈ 20.9 µM)
[2]; [29]
  MIC90: 32 µg/mL (≈ 83.4 µM)
[26]; Experiment 1
  MIC: 16 to 32 µg/mL
[26]; Klebsiella pneumoniae, ATCCBAA2344, Experiment 2, read-out: MIC
  MIC: 16 to 32 µg/mL (≈ 41.7 to 83.4 µM)
[16]
  MIC: ≤ 0.03 µg/mL
[17]
  human protein binding: 2%
[3]
  MIC: 32 µg/mL (≈ 83.4 µM)
[4]
  MIC: > 32 µg/mL
[18]
  MIC: 0.12 µg/mL (≈ 0.313 µM)
[5]
  MIC: 32 µg/mL (≈ 83.4 µM)
[19]
  MIC: 4 µg/mL (≈ 10.4 µM)
[21]
  MIC: 0.5 µg/mL (≈ 1.3 µM)
[22]
  MIC: 0.06 µg/mL (≈ 0.156 µM)
[23]
  MIC: ≤ 0.03 µg/mL
[24]
  MIC: ≤ 0.03 µg/mL
[6]
  MIC: 8 µg/mL (≈ 20.9 µM)
[7]; [30]
  CLSI MIC interpretation I (intermediate): 6.7%
  CLSI MIC interpretation R (resistant): 91.1%
  CLSI MIC interpretation S (susceptible): 2.2%
  MIC50: 64 µg/mL
[7]; [31]
  CLSI MIC interpretation I (intermediate): 4.7%
  CLSI MIC interpretation R (resistant): 95.3%
  CLSI MIC interpretation S (susceptible): 0%
  MIC50: 64 µg/mL
[7]; [32]
  CLSI MIC interpretation I (intermediate): 14.5%
  CLSI MIC interpretation R (resistant): 85.5%
  CLSI MIC interpretation S (susceptible): 0%
  MIC50: 16 µg/mL (≈ 41.7 µM)
[25]
  MIC: ≤ 0.03 µg/mL
